The values that follow come from patent US9932339B2, “Helquats with heteroaromatic substituents, preparation thereof, and use thereof as G-quadruplex stabilizers” (USTAV ORGANICKE CHEMIE A BIOCHEMIE AV CR, V.V.I., priority 2014, dated 2018).

SMILES strings stand for the structures.

Series [1] relates to G-quadruplex oligonucleotide F21T (human telomere). Put plainly: FRET melting of G-quadruplex oligonucleotide F21T with ligands. Format: binding. The note with it: for ΔTm (° C.) F21T/ds26: helquat 1 μmol·l^−1, oligonucleotide 0.2 μmol·l^−1, 50-fold excess of double-stranded competitor ds26; for ΔTm (° C.) F21T: helquat 1 μmol·l^−1, oligonucleotide 0.2 μmol·l^−1, without competitor. From the text:
(§1) To determine the degree of in vitro interactions of helquats with G-quadruplex(es), the oligonucleotides containing the guanine-rich sequences of human telomere (F21T) and NHE III1 promoter region of c-myc oncogene (Fmyc27T) were used. Both oligonucleotides capable of forming an intramolecular G-quadruplex were end-labeled with suitable fluorophores so as to form donor-acceptor FRET pair (5′-FAM and 3′-TAMRA). If the oligonucleotide is folded into the structure of the G-quadruplex, donor is in close proximity of acceptor and radiationless energy transfer to the acceptor occurs. With increasing temperature of the reaction mixture G-quadruplex structure gradually denatures and thus the donor and acceptor (FAM-TAMRA) drift apart. This leads to an increase in fluorescence of donor (FAM) and a decrease in fluorescence of acceptor (TAMRA).
(§2) The result of measurement is the curve of dependence of the intensity of fluorescence of the donor on the temperature. If the G-quadruplex is stabilized by ligand, melting temperature will increase. Melting temperature of G-quadruplex corresponds to the temperature when 50% of the original amount of the folded G-quadruplex is denatured. The measurement outcome is the difference in the melting temperatures (ΔTm) of the G-quadruplex alone and the G-quadruplex stabilized by ligand. In case of Fmyc27T experiments were performed in cacodylate buffer (10 mmol·l^−1, pH=7.2) with KCl (5 mmol·l^−1) and LiCl (95 mmol·l^−1) oligonucleotide and in case of F21T oligonucleotide in cacodylate buffer (10 mmol·l^−1, pH=7.2) with KCl (25 mmol·l^−1) and LiCl (75 mmol·l^−1).
(§3) Both oligonucleotides were denatured for 5 minutes at 95° C. and subsequently allowed to cool to room temperature (3 hours) in the switched-off thermoblock. The final oligonucleotide concentration in the reaction mixture was 0.2 μmol·l^−1. Test helquats were present at concentrations of 1 μmol·l^−1. The total reaction volume was 30 μl. The melting temperature of the oligonucleotides alone (without the presence of helquats) under these conditions was 58.1±0.2° C. for F21T and 64.7±0.4° C. for Fmyc27T. For determining the selectivity of binding of helquats to G-quadruplex in comparison with the double-stranded DNA, 50-fold excess of double-stranded DNA ([…] unlabeled competitor ds26 forming a hairpin) is added to the reaction mixture. After the addition to the reaction mixture ds26 competes with labeled oligonucleotide (Fmyc27T or F21T) for ligand binding. […] Melting temperature of oligonucleotides alone in the presence of the competitor is 59.4±0.5° C. for F21T and 66.3° C.±0.6° C. for Fmyc27T.
(§4) Fluorescence of FAM donor was measured using real-time PCR apparatus Opticon 2 (excitation 470-505 nm and emission 523-543 nm) in temperature increments of 0.5° C. in the range 25 to 95° C. Evaluation of the sigmoid curves of fluorescence intensity dependent on the temperature were performed in GraphPad Prism 5 (GraphPad Software, Inc., USA). Using nonlinear five parametric regression the inflection point on the curve was calculated that corresponds to the melting temperature (Tm) of the G-quadruplex under the given conditions. The values were obtained from at least three independent measurements.

For series [2], the system named is c-Myc27 oligonucleotide G-quadruplex. Put plainly: ECD melting curve of c-Myc27 oligonucleotide G-quadruplex with ligands. Format: binding. To be noted: ECD at 263 nm; molar ratio oligonucleotide:ligand 1:1 (5 μmol l^−1 each); Li+-cacodylate buffer. The method, then:
ECD spectra were measured on J-815 spectrometer (Jasco, Japan). Measurement settings (Tab. 3), spectra saving and background subtraction was performed in a Spectra Manager software (Jasco, Japan).
For measurement of the temperature dependencies the cuvettes in the cuvette compartment were placed in the Peltier module, the temperature was controlled by the Spectra Manager software. Melting curves were measured at a wavelength which corresponds to the maximum difference in signal intensity of ECD spectra of oligonucleotide at 25 and 95° C., as shown in FIG. 1. Before and after measuring the melting curves, ECD spectra in extreme temperatures were measured, in order to verify the stability of the studied system.
Processing of the spectra was performed using Spectra Manager (Jasco, Japan). The resulting spectra were obtained from the measured sample spectrum after subtraction of background spectrum, which was spectrum of the solvent. Measuring of sample spectrum and background was conducted under identical conditions. ECD spectra are reported as ellipticity, labeled in the CD figures [mdeg], whose numerical value is associated with dimensionless circular dichroism ΔA (CDv=32980 ΔAv). This CD notations preserves conventions of the international journals in which articles from the field are published.
Stock solution of […] was prepared from c-Myc27 oligonucleotide by dissolution in H2O. The cuvette of 1 mm thickness was filled with 7 μl of oligonucleotide solution and 133 μl of Li^+-cacodylate buffer. Oligonucleotide solution in the cuvette was overlayed with mineral oil to measure temperature dependencies without concentration changes due to evaporation of the solvent at higher temperatures.
From stock solutions of the racemic ligands in DMSO at a concentration of […] solutions were prepared at a concentration of 140 μmol l^−1 by dissolving in H2O. Ligands were added to the solution of oligonucleotide under buffer/mineral oil interface using Hamilton microsyringe (5 μl of solution at a concentration of […]). The resulting molar ratio of oligonucleotide:ligand was 1:1.
The cuvette filled with c-Myc27 oligonucleotide solution in Li^+-cacodylate buffer (cc-Myc27=5 μmol l^−1) was first heated for 5 minutes at 95° C., at this temperature ECD spectrum was measured. Then the sample was cooled to 25° C., allowed to stabilize for 10 min and then ECD spectrum was measured again. Then, the melting curve of ECD oligonucleotide at 263 nm was measured in the temperature range 25-95° C. and for verification of the stability of the sample spectra the spectra were measured again at 95 and 25° C. Under the oil layer ligand solution (cligand=5 μmol l^−1) was added to a solution of oligonucleotide, the sample was thoroughly mixed and ECD spectrum measured at 25° C., the melting curve was obtained and again control spectra were measured at 95 and 25° C.
Decomposition of the G-quadruplex structure in the presence of ligands under influence of temperature was monitored at the wavelength corresponding to the maximum difference in signal intensities of ECD oligonucleotide/ligand at 25 and 95° C., i.e. at 263 nm. Thermal stability of G-quadruplex was monitored in the range of 25 to 95° C. and in a molar ratio of oligonucleotide:ligand=1:1. Example of influence of the studied ligand on the stability of G-quadruplex formed from c-Myc27 oligonucleotide is shown in FIG. 2.
The degree of G-quadruplex stabilization was expressed as change of melting temperature caused by the presence of G-quadruplex ligands (ΔTm): ΔTm=Tm,oligonucleotide+ligand−Tm,oligonucleotide (1), • where Tm,oligonucleotide+ligand is melting temperature of molecular system comprising the oligonucleotide and the ligand and Tm,oligonucleotide, the melting temperature of the oligonucleotide itself. Tab. 4 summarizes the changes in melting temperatures of c-Myc27 oligonucleotide G-quadruplex in the presence of studied ligands.

Series [3] deals with G-quadruplex oligonucleotide Fmyc27T (NHE III1 promoter region of c-myc oncogene). Put plainly: FRET melting of G-quadruplex oligonucleotide Fmyc27T with ligands. It is filed as binding. The note with it: for ΔTm (° C.) Fmyc27T/ds26 (° C.): helquat 1 μmol·l^−1, oligonucleotide 0.2 μmol·l^−1, 50-fold excess of double-stranded competitor ds26; for ΔTm (° C.) Fmyc27T: helquat 1 μmol·l^−1, oligonucleotide 0.2 μmol·l^−1, without competitor.
From the text: as §1, §2, §3, §4

The conditions of series [4]: Phase II clinical trials; cited from earlier work.
Another series concerns G-quadruplex. To be noted: background statement; cited from earlier work.

On to `Cc1[nH]c2ccccc2c1/C=C/c1cc[n+]2c(c1)-c1c(ccc3c1-c1cc(/C=C/c4c(C)[nH]c5ccccc45)cc[n+]1CC3)CC2.O=S(=O)([O-])C(F)(F)F.O=S(=O)([O-])C(F)(F)F` [PDA-C10-11, 2,15-bis((E)-2-(2-methyl-1H-indol-3-yl)vinyl)-6,7,10,11-tetrahydrodipyrido[2,1-a:1′,2′-k][2,9]phenanthroline-5,12-diium trifluoromethanesulfonate], for which, in series [1], the “ΔTm (° C.) F21T/ds26” value was found to be 12.3 °C and the “ΔTm (° C.) F21T” value amounted to 12.9 °C. Moreover, the “ΔTm (° C.)” value in series [2] worked out at 8.2 °C. In series [3], the “ΔTm (° C.) Fmyc27T/ds26 (° C.)” value is 13.9 °C and the “ΔTm (° C.) Fmyc27T” value was 14.9 °C.

Take `Brc1ccc2[nH]cc(/C=C/c3cc[n+]4c(c3)-c3c(ccc5c3-c3cccc[n+]3CC5)CC4)c2c1.O=S(=O)([O-])C(F)(F)F.O=S(=O)([O-])C(F)(F)F` [LSA-C9-30, (E)-2-(2-(5-bromo-1H-indol-3-yl)vinyl)-6,7,10,11-tetrahydrodipyrido[2,1-a:1′,2′-k][2,9]phenanthroline-5,12-diium trifluoromethanesulfonate]: in series [1], the “ΔTm (° C.) F21T/ds26” value came out at 5.5 °C and the “ΔTm (° C.) F21T” value was 8.6 °C. Also, the “ΔTm (° C.)” value in series [2] was 6.4 °C. In series [3], the “ΔTm (° C.) Fmyc27T/ds26 (° C.)” value was determined as 8.2 °C and the “ΔTm (° C.) Fmyc27T” value came to 10.5 °C.

As for `CN1CCC[C@H]1CCNC(=O)c1cn2c3c(c(N4CCC(c5cnccn5)C4)c(F)cc3c1=O)Oc1cc3ccccc3cc1-2` (stereo partly drawn) [quarfloxin], the bioavailability result in series [4] is “poor bioavailability”.

With `Cc1c(C)c2c(c3c1CC[n+]1ccc(/C=C/c4c[nH]c5ncccc45)cc1-3)-c1cc(/C=C/c3c[nH]c4ncccc34)cc[n+]1CC2` [PDB-C8-14, 2,15-bis((E)-2-(1H-pyrrolo[2,3-b]pyridin-3-yl)vinyl)-8,9-dimethyl-6,7,10,11-tetrahydrodipyrido[2,1-a:1′,2′-k][2,9]phenanthroline-5,12-diium trifluoromethanesulfonate], in series [1], the “ΔTm (° C.) F21T/ds26” value amounted to 5.0 °C and the “ΔTm (° C.) F21T” value came to 8.4 °C. Moreover, in series [2], the “ΔTm (° C.)” value was 5.0 °C. For the same compound, in series [3], the “ΔTm (° C.) Fmyc27T/ds26 (° C.)” value worked out at 9.3 °C and the “ΔTm (° C.) Fmyc27T” value was found to be 11.5 °C.

Regarding `Cc1[nH]c2ccccc2c1/C=C/c1cc[n+]2c(c1)-c1c(c(C)c(C)c3c1-c1cc(/C=C/c4c(C)[nH]c5ccccc45)cc[n+]1CC3)CC2` [PDB-C10-11, 8,9-dimethyl-2,15-bis((E)-2-(2-methyl-1H-indol-3-yl)vinyl)-6,7,10,11-tetrahydrodipyrido[2,1-a:1′,2′-k][2,9]phenanthroline-5,12-diium trifluoromethanesulfonate], in series [1], the “ΔTm (° C.) F21T/ds26” value was 10.7 °C and the “ΔTm (° C.) F21T” value came to 13.0 °C. In series [2], the “ΔTm (° C.)” value is 9.8 °C. For the same compound, in series [3], the “ΔTm (° C.) Fmyc27T/ds26 (° C.)” value amounted to 13.1 °C and the “ΔTm (° C.) Fmyc27T” value is 14.2 °C.

Turning to `C[n+]1ccc(-c2c3nc(c(-c4cc[n+](C)cc4)c4ccc([nH]4)c(-c4cc[n+](C)cc4)c4ccc([nH]4)c(-c4cc[n+](C)cc4)c4nc2C=C4)C=C3)cc1` [TMPyP4], in the series with G-quadruplex, the “selectivity towards G-quadruplex in presence of DNA duplex” value is recorded as “low selectivity”.

As for `C(=C\c1c(-c2ccccc2)[nH]c2ccccc12)/c1cc[n+]2c(c1)-c1c(ccc3c1-c1cc(/C=C/c4c(-c5ccccc5)[nH]c5ccccc45)cc[n+]1CC3)CC2.O=S(=O)([O-])C(F)(F)F.O=S(=O)([O-])C(F)(F)F` [PDA-C15-8, 2,15-bis((E)-2-(2-phenyl-1H-indol-3-yl)vinyl)-6,7,10,11-tetrahydrodipyrido[2,1-a:1′,2′-k][2,9]phenanthroline-5,12-diium trifluoromethanesulfonate], in series [1], the “ΔTm (° C.) F21T/ds26” value was found to be 17.3 °C and the “ΔTm (° C.) F21T” value is 17.2 °C. The “ΔTm (° C.)” value in series [2] came to 10.1 °C. Also, in series [3], the “ΔTm (° C.) Fmyc27T/ds26 (° C.)” value turned out to be 19.9 °C and the “ΔTm (° C.) Fmyc27T” value was 18.8 °C.
